This passage reports AC50 results from PubChem BioAssay AID449750 (Broad Institute, 2010).

Active and inactive are the calls of the source. No rule for the calls is given here.

The assay can be described thus: non-covalent RecA intein splicing inhibitors, dose response, biochemical, cell-free, fluorescence, secondary screen (AID 449750).
For `O=S(=O)(Nc1cc2nc3ccccc3nc2n1Cc1ccccc1)c1ccc(Cl)cc1`, the half-maximal activity concentration (AC50) (as a rule, the midpoint of the concentration-response curve, whichever way the signal moves) was 5.18 µM.
`Cc1nnc(Sc2cc(NCCO)c([N+](=O)[O-])c3nonc23)s1`: the AC50 was > 38 µM (inactive).
The value for `O=[N+]([O-])c1ccc(O)c2ncccc12` was 6.6 µM.
The value for `CCOC(=O)C1=C(O)c2ccccc2C(=O)/C1=C\c1ccc(CC)cc1` was 7.05 µM; that for `O=C(N/N=C/c1ccc([N+](=O)[O-])o1)c1ccc(O)cc1` was > 38 µM (inactive).
As for `Cc1nn(-c2ccccc2)c2c1C(c1ccc(F)cc1)C(C#N)=C(N)O2` (centres undefined), the figure is 28.4 µM; as for `CNCc1ccccc1Sc1ccc(O)c(O)c1`, > 38 µM (inactive).
`Cc1cccc(CS(=O)(=O)c2nnc([C@H](Cc3ccccc3)NC(=O)OC(C)(C)C)o2)c1`: the AC50 was > 38 µM (inactive).
For the molecule `O=[N+]([O-])c1cncc([N+](=O)[O-])c1Nc1cccc(O)c1`, the AC50 is > 38 µM (inactive).
Turning to `O=C1C(Nc2ccc(O)cc2)=C/C(=N/S(=O)(=O)c2cccs2)c2ccccc21`, the AC50 is 0.179 µM.
As for `O=C(CCl)N(CCc1ccccc1)CCc1ccccc1`, the figure is 3.25 µM.
As for `Cc1cc(Br)c2c(c1)/C(=C/C(=O)c1cccs1)C(=O)N2`, the figure is > 38 µM (inactive); as for `CCOC(=O)c1sc(N(Cc2ccccc2)C(=O)CCl)nc1C`, 5.79 µM.
Take `Cc1cc(C(=O)CCl)c(C)n1CCc1ccccc1`: the AC50 was 14.2 µM.
The value for `Fc1ccc(Nc2nc(Oc3ccccc3F)nc(N3CCCC3)n2)cc1` was > 38 µM (inactive).
As for `Cn1c(=O)c([N+](=O)[O-])c(Cl)c2ccccc21`, the figure is > 38 µM (inactive); as for `O=S(=O)(N[C@H]1C[C@@H](NS(=O)(=O)OCC(Cl)(Cl)Cl)C2CCCCC21)OCC(Cl)(Cl)Cl` (some centres undefined), 3.37 µM; as for `CCOc1ccc(C2C(C#N)=C(N)Oc3n[nH]c(C)c32)cc1OC(=O)C1CC1` (centres undefined), > 38 µM (inactive).
As for `CN(CCc1cnn(C)c1)C(=O)C1CCC(=O)N(CC2CCCCC2)C1` (centres undefined), the figure is > 38 µM (inactive).
Turning to `CCN(CC)S(=O)(=O)c1ccc(N2CCN(S(=O)(=O)c3ccccc3C#N)CC2)nc1`, the AC50 is > 38 µM (inactive).
As for `O=[N+]([O-])c1ccc(S(=O)(=O)c2cccc(C(F)(F)F)c2)nc1`, the figure is > 38 µM (inactive); as for `CC(=O)Nc1cc(OC(=O)c2ccco2)cc(OC(=O)c2ccco2)c1`, 11.8 µM.
As for `O=Cc1sc(=O)n(Cc2cccc(C(=O)O)c2)c1Cl`, the figure is > 12 µM (inactive); as for `COCc1[nH]nc2c1C(c1ccsc1)C(C#N)=C(N)O2` (centres undefined), 35.3 µM; as for `C#CCOc1ccc(/C=C2/C(=O)N(c3cccc(C(=O)O)c3)N=C2C)cc1OC`, 2.79 µM.
`CCOC(=O)CSc1n[nH]c(NC(=O)c2cccc(C(F)(F)F)c2)n1`: the AC50 is > 38 µM (inactive).
As for `COC(=O)c1sc(-c2cccs2)cc1NC(=O)/C=C/C(=O)O`, the figure is 35.9 µM; as for `CCN(CC)c1ccc2oc(=O)c(C)nc2c1`, 37.2 µM.
Consider `O=C1C=C(NCc2ccccc2)c2ccccc2C1=O`, for which the AC50 was 5.91 µM.
As for `Cn1nc(-c2ccc(Cl)cc2)nc2c(=O)n(C)c(=O)nc1-2`, the figure is 0.0579 µM; as for `COc1ccc(O)c(C(c2c(C)[nH][nH]c2=O)c2c(C)[nH][nH]c2=O)c1`, 8.26 µM; as for `COC(=O)c1sc(-c2ccc(C(C)(C)C)cc2)cc1NC(=O)/C=C/C(=O)O`, 5.71 µM.
With `COc1ccc(-c2cc(C#N)nc(Cl)n2)cc1`, the AC50 is > 38 µM (inactive).
As for `Cc1[nH]nc2c1C(c1ccsc1C)C(C#N)=C(N)O2` (centres undefined), the figure is > 38 µM (inactive); as for `CC(C)Cn1c(C(C)C)nc([N+](=O)[O-])c1S(=O)(=O)c1ccc(F)cc1`, > 38 µM (inactive).
The value for `COC(=O)CN1C(c2ccc(Cl)cc2)=Nc2ccc(Cl)cc2C1c1ccccc1` (centres undefined) was 5.48 µM.
Turning to `COc1ccc(CC(=O)O/N=C(\N)Cc2cccc3ccccc23)cc1OC`, the AC50 is > 38 µM (inactive).
As for `CN1C(=O)C(Cc2ccc3c(c2)OCO3)C(=O)N(C)C1=O`, the figure is > 38 µM (inactive).
`Cc1cc(C(=O)CCl)c(C)n1CC1COc2ccccc2O1` (centres undefined): the AC50 is 19.4 µM.
Turning to `CCCCCCCCCCOC(=O)Cn1c(COc2ccccc2C)[n+](C)c2ccccc21`, the AC50 was 6.93 µM.
As for `COc1ccccc1NC1=C(Cl)C(=O)OC1OC(=O)c1ccco1` (centres undefined), the figure is > 38 µM (inactive); as for `Cc1ccc(C(=O)NC2(O)C(=O)c3ccccc3C2=O)cc1C`, 6.09 µM.
Regarding `O=C(N/N=C/c1ccc(OC(=O)c2ccco2)cc1)c1ccc[n+]([O-])c1`, the AC50 was > 38 µM (inactive).
As for `O=C(Oc1ccc(Br)cc1C(=S)N1CCOCC1)c1cccc([N+](=O)[O-])c1`, the figure is > 38 µM (inactive); as for `CCOC(=O)Cc1c(C)c2c(C)[nH]nc2oc1=O`, > 38 µM (inactive); as for `COc1ccc(/C=C2/C(=O)N(c3ccccc3)N=C2C)cc1`, 5.27 µM.
In the case of `COc1ccccc1N(C(=O)CCl)c1cn(C(C)=O)c2ccccc12`, the AC50 is 2.36 µM.
As for `CC[n+]1ccc2cc(OC)c(OC)cc2c1Cc1ccc(OC)c(OC)c1`, the figure is > 38 µM (inactive); as for `COc1ccc(S(=O)(=O)Nc2ccc(O)c3ccccc23)cc1`, 0.296 µM.
Consider `O=C1COc2ccc(C(=O)CCl)cc2N1`, for which the AC50 is > 38 µM (inactive).
The value for `O=C(NCc1ccccc1)c1nc(S(=O)(=O)Cc2ccccc2)ncc1Cl` was > 38 µM (inactive); that for `Cc1ccc(-n2nc(C)c(NC(=O)CCl)c2C)cc1C` was 16.1 µM.
The value for `O=C1C(Cl)=C(N2CCOCC2)C(=O)N1c1ccc(Br)cc1` was > 38 µM (inactive); that for `O=C1Cc2ccccc2C(=O)N1Cc1ccccc1` was > 38 µM (inactive).
Regarding `COC(=O)c1cc(C)nc2c1C(=O)C(=O)C=C2N1CCOCC1`, the AC50 was 1.16 µM.
As to `CC(=O)Oc1ccc(N(C(C)=O)S(=O)(=O)c2ccc3ccccc3c2)cc1Br`, the AC50 is 29.5 µM.
For the molecule `CCCCCc1cc(=O)oc2c(C(CCN3CCCC(C)C3)c3ccc(OC)cc3)c(OC)cc(OC)c12` (centres undefined), the concentration at half-maximal activity (AC50) is 10.1 µM.
On to `CN1CCN(C2=C(Cl)C(=O)N(c3ccc(Cl)cc3)C2=O)CC1`, for which the AC50 is 3.49 µM.
`Cc1ccc(S(=O)(=O)/N=C2\C=C(Nc3cccc(C(=O)O)c3)C(=O)c3ccccc32)cc1`: the AC50 is 0.412 µM.
As for `Cn1c2c(c(=O)n(C)c1=O)[C@@]1(C(=O)Nc3ccccc31)C(C#N)=C(N)O2`, the figure is > 38 µM (inactive).
As for `Cc1cc(-c2[nH]nc3c2C(c2cccc(O)c2)C(C#N)=C(N)O3)c(C)s1` (centres undefined), the figure is 28.8 µM; as for `COc1ccc2[nH]c(CN3CCC(CO)(CCOc4ccccc4)CC3)c(C)c2c1`, > 38 µM (inactive).
With `Cc1ccccc1NC1=C/C(=N\S(=O)(=O)c2ccc(C(=O)O)cc2)c2ccccc2C1=O`, the AC50 is 14.7 µM.
As for `Nc1ccccc1S(=O)(=O)NC1=NCCCCC1`, the figure is > 38 µM (inactive); as for `O=c1c2ccccc2nc2n1CCC2`, 22.9 µM.
As for `Cc1onc(-c2ccccc2)c1-c1nc2ccccc2c(=O)o1`, the AC50 was > 38 µM (inactive).
Regarding `O=[N+]([O-])c1cc(-c2ccc(C(=S)N3CCOCC3)o2)ccc1Cl`, the AC50 was 18.4 µM.
The value for `CC1=NN(c2ccccc2)C(=O)/C1=C/c1c(O)n(-c2ccc(F)c(Cl)c2)[nH]c1=O` was 10.3 µM; that for `CN(C)c1ccc(NC(=O)c2ccncc2)c2ccccc12` was > 38 µM (inactive).
For the molecule `Cc1[nH][nH]c(=O)c1C(c1c(C)[nH][nH]c1=O)c1cn(Cc2ccccc2Cl)c2ccccc12`, the concentration at half-maximal activity (AC50) was 1.68 µM.
As to `O=C(/C=C/c1ccccc1)c1ccc2c3c(cccc13)CC2`, the AC50 was 3.7 µM.
The value for `CN(CC(=O)Nc1ccc(N2CCOCC2)cc1)CC(=O)Nc1cccc(C#N)c1` was > 38 µM (inactive); that for `COc1cccc(-c2cc(=O)[nH][nH]2)c1` was 13.9 µM.
`CC(C)NC(=S)NC(c1ccccc1)(c1ccccc1)c1ccccc1`: the AC50 is 27.9 µM.
On to `Cc1[nH]n(-c2ccccc2)c(=O)c1C(c1ccc([N+](=O)[O-])cc1)c1c(C)[nH]n(-c2ccccc2)c1=O`, for which the AC50 is 3.88 µM.
On to `CC(C)(C)c1cc(C(=O)CCN2CCOCC2)cc(C(C)(C)C)c1O`, for which the half-maximal activity concentration (AC50) was 12.1 µM.
In the case of `CC1=NNC(=O)C1Cc1c(Cl)cccc1Cl` (centres undefined), the AC50 is > 38 µM (inactive).
`CSc1nc(-c2ccccc2)nn1C(=O)c1ccc(Cl)cc1`: the AC50 was > 38 µM (inactive).
As for `CN(C)c1ncc(C2=C(Cl)C(=O)C(N3CCCC3)=C(Cl)C2=O)s1`, the figure is 14 µM; as for `Cc1cc(Sc2nnc(/N=C/N(C)C)s2)c2ccccc2n1`, > 38 µM (inactive).
The value for `Cc1ccc(C)c(Sc2ccc(NC(=O)CCl)cc2)c1` was 1.27 µM.
As to `O=C(O)/C=C\C(=O)Nc1ccc(Oc2ccc(Br)cc2)cc1`, the AC50 was 15.2 µM.
The value for `CCN(CC)CCOc1ccc(/C(=C(/Cl)c2ccccc2)c2ccccc2)cc1` was 9.31 µM.
The value for `O=C(OCn1ncc(Cl)c(Cl)c1=O)c1cccc(C(F)(F)F)c1` was 12.9 µM; that for `COc1ccc(CC2=CC(=O)c3ccccc3C2=O)cc1` was 6.95 µM; that for `O=C(NNC(=O)c1ccc2ccccc2c1O)c1ccccc1Cl` was > 38 µM (inactive).
The value for `O=C(CN1C(=O)S/C(=C\C=C\c2ccccc2)C1=O)Nc1ccc(C(=O)O)cc1` was 29.6 µM.
For the molecule `c1cc2cn[nH]c2cc1NC1CCCCCC1`, the AC50 is 36.2 µM.
As for `COC1=CC(=O)C(O)=C(CCCCCCC/C=C/CCCCCCCC2=C(O)C(=O)C=C(OC)C2=O)C1=O`, the AC50 was 4.64 µM.
With `COc1ccccc1C1C(C#N)=C(N)Oc2c1c(-c1ccccc1)nn2-c1ccccc1` (centres undefined), the half-maximal activity concentration (AC50) was 11.9 µM.
In the case of `COC(=O)c1cccc(N2C(=O)C(Cl)=C(N3CCOCC3)C2=O)c1`, the AC50 is > 38 µM (inactive).
The value for `COc1ccc(/C=C(/C#N)C(=O)Nc2ccc(O)cc2)cc1C(=O)O` was > 38 µM (inactive).
In the case of `COC(=O)c1nc(-c2ccc3c(n2)C(=O)C(N)=C(OC)C3=O)c(N)c(-c2ccc(OC)c(OC)c2O)c1C`, the AC50 was 0.763 µM.
As for `Cc1nc(Nc2ccc(O)cc2)c2c3c(sc2n1)CCCC3`, the figure is > 38 µM (inactive).
